Earlier results on one compound are cited in EP3856749B1, “WATER-SOLUBLE, NON-AGGREGATED SILICON PHTALGCYANINE COMPOUND HAVING IN VITRO ANTICANCER EFFECT AGAINST CANCER TYPES OF LUNG, LIVER, BREST AND MELANOMA” (Karadeniz Teknik Universitesi, priority 2018, dated 2020).

In this series the test system is cervical cancer cell line (HeLa). The settings on record: cited from earlier work.

For the compound `c1ccc(C(O[Si]2(OC(c3ccccc3)(c3ccccc3)c3ccncc3)n3c4c5ccccc5c3N=C3N=C(N=c5c6ccccc6c(n52)=NC2=NC(=N4)c4ccccc42)c2ccccc23)(c2ccccc2)c2ccncc2)cc1` [compound 3, axially di-(alpha,alpha-diphenyl-4-pyridylmethoxy) silicon(IV) phthalocyanine], the “cell survival (photocytotoxicity)” value is reported as 17%.
